According to ChEMBL document CHEMBL1133464, “Ligands for glutamate receptors: design and therapeutic prospects” (J Med Chem, 2000):

Key:
[1] = biological target: Metabotropic glutamate receptor 5 (Homo sapiens, UniProt P41594); experiment: Agonist potency against cloned metabotropic glutamate receptor 5; type: functional
[2] = biological target: Metabotropic glutamate receptor 4 (Homo sapiens, UniProt Q14833); experiment: Agonist potency against cloned human Metabotropic glutamate receptor 4 (mGluR-4); type: functional
Metabotropic glutamate receptor 4, sequence (Q14833 whole entry): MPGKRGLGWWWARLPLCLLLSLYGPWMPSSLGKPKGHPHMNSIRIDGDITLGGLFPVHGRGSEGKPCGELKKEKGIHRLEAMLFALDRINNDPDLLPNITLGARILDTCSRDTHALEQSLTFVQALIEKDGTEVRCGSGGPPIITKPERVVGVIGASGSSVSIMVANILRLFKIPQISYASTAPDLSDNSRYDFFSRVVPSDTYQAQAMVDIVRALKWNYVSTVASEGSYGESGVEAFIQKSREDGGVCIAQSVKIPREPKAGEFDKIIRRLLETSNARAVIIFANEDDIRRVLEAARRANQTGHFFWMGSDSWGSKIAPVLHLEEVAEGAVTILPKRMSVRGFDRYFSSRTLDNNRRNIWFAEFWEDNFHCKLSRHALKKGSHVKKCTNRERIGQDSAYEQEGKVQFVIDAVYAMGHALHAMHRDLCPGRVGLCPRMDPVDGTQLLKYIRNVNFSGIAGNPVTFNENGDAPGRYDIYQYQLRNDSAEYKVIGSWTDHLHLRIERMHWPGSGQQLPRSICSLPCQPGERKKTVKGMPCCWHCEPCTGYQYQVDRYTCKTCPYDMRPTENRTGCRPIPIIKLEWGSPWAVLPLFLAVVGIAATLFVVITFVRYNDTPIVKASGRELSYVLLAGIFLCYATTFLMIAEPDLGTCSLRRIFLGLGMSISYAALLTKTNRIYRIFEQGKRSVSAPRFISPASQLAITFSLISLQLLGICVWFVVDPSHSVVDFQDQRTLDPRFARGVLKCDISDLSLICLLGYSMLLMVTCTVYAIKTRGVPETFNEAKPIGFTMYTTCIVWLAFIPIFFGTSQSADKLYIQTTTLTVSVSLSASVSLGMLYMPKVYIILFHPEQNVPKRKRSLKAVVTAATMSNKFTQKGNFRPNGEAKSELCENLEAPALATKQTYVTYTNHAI

[3] = biological target: Metabotropic glutamate receptor 2 (Homo sapiens, UniProt Q14416); experiment: Partial agonist potency against cloned Metabotropic glutamate receptor 2; type: functional
Metabotropic glutamate receptor 2, sequence (Q14416 whole entry): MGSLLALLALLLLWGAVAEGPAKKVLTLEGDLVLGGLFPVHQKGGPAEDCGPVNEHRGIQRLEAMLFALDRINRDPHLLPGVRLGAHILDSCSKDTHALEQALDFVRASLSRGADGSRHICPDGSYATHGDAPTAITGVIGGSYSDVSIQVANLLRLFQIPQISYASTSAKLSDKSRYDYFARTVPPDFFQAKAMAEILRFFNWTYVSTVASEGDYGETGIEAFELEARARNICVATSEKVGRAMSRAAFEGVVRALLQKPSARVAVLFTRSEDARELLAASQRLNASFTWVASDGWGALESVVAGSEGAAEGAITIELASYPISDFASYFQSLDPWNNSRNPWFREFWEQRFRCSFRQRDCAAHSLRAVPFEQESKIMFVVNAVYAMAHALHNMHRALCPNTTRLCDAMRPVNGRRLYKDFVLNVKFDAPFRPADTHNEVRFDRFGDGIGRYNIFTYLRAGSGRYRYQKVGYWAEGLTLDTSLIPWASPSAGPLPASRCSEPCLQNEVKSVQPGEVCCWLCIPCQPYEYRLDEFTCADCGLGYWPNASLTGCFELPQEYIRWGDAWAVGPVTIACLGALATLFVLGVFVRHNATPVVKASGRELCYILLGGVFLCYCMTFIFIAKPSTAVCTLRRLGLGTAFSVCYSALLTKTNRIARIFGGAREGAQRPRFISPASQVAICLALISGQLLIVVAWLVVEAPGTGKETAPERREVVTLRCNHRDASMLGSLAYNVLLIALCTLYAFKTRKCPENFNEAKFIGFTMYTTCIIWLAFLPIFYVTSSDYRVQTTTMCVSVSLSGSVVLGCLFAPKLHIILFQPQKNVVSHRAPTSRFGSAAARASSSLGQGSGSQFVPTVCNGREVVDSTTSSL

[4] = biological target: Metabotropic glutamate receptor 1 (Homo sapiens, UniProt Q13255); experiment: Agonist potency against cloned human metabotropic glutamate receptor 1; type: functional
Metabotropic glutamate receptor 1, sequence (Q13255 whole entry): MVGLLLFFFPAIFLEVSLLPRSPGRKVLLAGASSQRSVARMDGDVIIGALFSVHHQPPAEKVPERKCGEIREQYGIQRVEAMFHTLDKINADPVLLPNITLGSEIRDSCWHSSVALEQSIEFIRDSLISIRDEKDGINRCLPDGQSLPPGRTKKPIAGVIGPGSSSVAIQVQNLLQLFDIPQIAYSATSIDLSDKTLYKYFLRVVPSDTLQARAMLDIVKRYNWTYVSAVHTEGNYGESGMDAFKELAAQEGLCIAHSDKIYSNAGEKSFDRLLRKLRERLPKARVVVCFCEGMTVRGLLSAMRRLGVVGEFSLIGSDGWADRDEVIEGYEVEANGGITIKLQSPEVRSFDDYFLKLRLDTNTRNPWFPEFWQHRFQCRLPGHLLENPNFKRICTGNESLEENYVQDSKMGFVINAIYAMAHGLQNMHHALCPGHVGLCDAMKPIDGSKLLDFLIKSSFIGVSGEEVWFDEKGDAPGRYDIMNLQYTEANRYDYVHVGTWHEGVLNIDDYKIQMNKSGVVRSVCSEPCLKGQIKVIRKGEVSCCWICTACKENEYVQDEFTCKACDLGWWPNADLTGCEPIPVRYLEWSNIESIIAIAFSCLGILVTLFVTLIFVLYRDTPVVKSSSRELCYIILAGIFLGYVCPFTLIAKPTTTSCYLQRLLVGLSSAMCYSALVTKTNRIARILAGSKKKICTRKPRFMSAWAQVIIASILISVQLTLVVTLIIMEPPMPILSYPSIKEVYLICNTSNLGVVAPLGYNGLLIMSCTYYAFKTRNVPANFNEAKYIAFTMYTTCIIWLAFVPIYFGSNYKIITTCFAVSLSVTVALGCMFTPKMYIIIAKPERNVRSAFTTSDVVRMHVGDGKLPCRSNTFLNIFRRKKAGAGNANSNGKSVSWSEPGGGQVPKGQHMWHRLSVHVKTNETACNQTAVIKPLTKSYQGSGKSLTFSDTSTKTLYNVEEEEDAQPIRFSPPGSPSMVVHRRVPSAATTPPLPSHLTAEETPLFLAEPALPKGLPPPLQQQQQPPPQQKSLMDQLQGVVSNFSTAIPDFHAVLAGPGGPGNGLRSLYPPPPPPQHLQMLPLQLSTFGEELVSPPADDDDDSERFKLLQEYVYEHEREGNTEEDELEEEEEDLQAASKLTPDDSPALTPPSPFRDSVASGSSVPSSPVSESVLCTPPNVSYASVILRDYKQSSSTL

[5] = (§1) Effective concentration against NR1/NR2A receptor
[6] = as §1; remark: listed apart in the source
[7] = as §1; remark: listed apart in the source
[8] = as §1; remark: listed apart in the source

Metabotropic glutamate receptor 5, sequence (P41594 whole entry): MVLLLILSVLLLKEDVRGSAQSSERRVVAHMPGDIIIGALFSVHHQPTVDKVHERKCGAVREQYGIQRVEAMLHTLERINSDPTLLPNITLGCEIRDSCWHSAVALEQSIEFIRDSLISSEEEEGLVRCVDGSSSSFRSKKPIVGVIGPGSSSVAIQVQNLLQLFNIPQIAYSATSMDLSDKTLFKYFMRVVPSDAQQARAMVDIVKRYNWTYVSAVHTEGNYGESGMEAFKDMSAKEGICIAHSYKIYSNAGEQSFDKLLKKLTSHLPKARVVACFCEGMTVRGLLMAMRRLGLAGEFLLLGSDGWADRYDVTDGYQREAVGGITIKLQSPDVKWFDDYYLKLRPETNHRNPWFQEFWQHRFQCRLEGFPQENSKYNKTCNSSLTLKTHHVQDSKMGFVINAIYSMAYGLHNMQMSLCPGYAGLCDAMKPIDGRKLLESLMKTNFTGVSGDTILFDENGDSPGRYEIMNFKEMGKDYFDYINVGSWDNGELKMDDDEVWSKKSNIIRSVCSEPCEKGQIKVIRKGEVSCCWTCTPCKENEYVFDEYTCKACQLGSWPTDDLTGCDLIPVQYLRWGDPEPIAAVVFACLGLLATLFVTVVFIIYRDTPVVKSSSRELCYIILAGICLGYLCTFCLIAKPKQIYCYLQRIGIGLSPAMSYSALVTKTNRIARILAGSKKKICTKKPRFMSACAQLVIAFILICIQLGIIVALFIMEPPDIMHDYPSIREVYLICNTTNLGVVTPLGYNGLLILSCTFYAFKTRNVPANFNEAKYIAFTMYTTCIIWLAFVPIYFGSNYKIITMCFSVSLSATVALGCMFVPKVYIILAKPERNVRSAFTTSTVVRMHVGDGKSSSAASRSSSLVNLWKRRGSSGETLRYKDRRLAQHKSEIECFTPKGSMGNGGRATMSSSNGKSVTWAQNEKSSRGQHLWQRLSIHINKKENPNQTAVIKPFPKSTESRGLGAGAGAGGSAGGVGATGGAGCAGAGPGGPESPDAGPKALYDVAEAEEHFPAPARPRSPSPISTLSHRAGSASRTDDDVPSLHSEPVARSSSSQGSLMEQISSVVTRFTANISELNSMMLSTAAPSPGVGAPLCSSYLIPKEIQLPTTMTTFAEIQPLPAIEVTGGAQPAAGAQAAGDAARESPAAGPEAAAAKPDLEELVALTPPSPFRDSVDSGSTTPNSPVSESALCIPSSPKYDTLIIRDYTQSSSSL

N[C@H](C(=O)O)C12C3C4C1C1C2C3C41C(=O)O (stereo partly drawn)
Ki [1]: > 1000 µM
Ki [2]: > 1000 µM
Ki [3]: 55 µM
Ki [4]: 232 µM

CN[C@H](CC(=O)O)C(=O)O [N-METHYL-D-ASPARTIC ACID (NMDA)]
EC50 [5]: 36 µM
EC50 [6]: 20 µM
EC50 [7]: 22 µM
EC50 [8]: 9 µM
